Test results: patent publication US10624897B2, “Chlorobenzene substituted azaaryl compounds” (TAIPEI MEDICAL UNIVERSITY, priority 2015, dated 2020)
Like-named read-outs stand apart in the source and are kept apart here.

Key:
RT-112 cells [1] = assay: Cell cycle distribution by flow cytometry; format: cell-based; conditions: 48 h to 72 h, FIG. 3A
RT-112 cells [2] = assay: Western blot of G0/G1 regulatory proteins; format: cell-based; conditions: 24 h, FIG. 3C
Description: C. […] Apoptosis was assessed via detection of cleaved caspase-3 and PARP.
We observed that genes associated with cell cycle progression were decreased in MPT0L145-treated cells. […] This phenomenon was also observed in the cells treated with BGJ-398 (FIG. 3A). […] Next, we examined expression of G0/G1 regulatory proteins via western blot. […] The possibility of MPT0L145-induced apoptosis was further eliminated by examining cleavage of caspase-3 and its substrate, PARP, in 72 h, compared with paclitaxel (FIG. 3D).

[3] = tested on: RT-112, RT4 and T24 cells; assay: MTT assay, bladder cancer cells with different FGFR3 status; format: cell-based; conditions: 72 h, FIG. 1A
Description: Cell viability was assessed the MTT assay. […] Data are expressed as means±S.D. (***P<0.001 compares to control group).
BGJ-398, a known selective inhibitor of FGFR1 to FGFR3, was included as a reference compound. […] The major downstream pathways of FGFRs are MAPK, PI3K/AKT, and PLC-γ. RT-112 cells, which express FGFR3-TACC3, are reportedly unable to activate PLCγ due to a deletion of the last exon of FGFR3.

AURKB = target: T1, AURKB (Homo sapiens, UniProt Q96GD4); assay: Kinase binding assay (Kd)
T1 construct: made in house; host or cells: E. coli BL21-derived host (T7 phage) or HEK-293
Description: (§1) Kinase assays. For most assays, kinase-tagged T7 phage strains were prepared in an E. coli host derived from the BL21 strain. E. coli were grown to log-phase and infected with T7 phage and incubated with shaking at 32° C. until lysis. The lysates were centrifuged and filtered to remove cell debris. The remaining kinases were produced in HEK-293 cells and subsequently tagged with DNA for qPCR detection. […] The liganded beads were blocked with excess biotin and washed with blocking buffer (SeaBlock (Pierce), 1% BSA, 0.05% Tween 20, 1 mM DTT) to remove unbound ligand and to reduce non-specific binding. […] All reactions were performed in polystyrene 96-well plates in a final volume of 0.135 ml. […] The kinase concentration in the eluates was measured by qPCR.
(§2) An 11-point 3-fold serial dilution of each test compound was prepared in 100% DMSO at 100× final test concentration and subsequently diluted to 1× in the assay (final DMSO concentration=1%). Most Kds were determined using a compound top concentration=30,000 nM.
(§3) Binding constants (Kds) were calculated with a standard dose-response curve using the Hill equation: […]
(§4) The Hill Slope was set to −1. Curves were fitted using a non-linear least square fit with the Levenberg-Marquardt algorithm.

AXL = target: T2, AXL (Homo sapiens, UniProt P30530); assay: Kinase binding assay (Kd)
T2 construct: made in house; host or cells: E. coli BL21-derived host (T7 phage) or HEK-293
Description: as §1, §2, §3, §4

CDK3 = target: T3, CDK3 (Homo sapiens, UniProt Q00526); assay: Kinase binding assay (Kd)
T3 construct: made in house; host or cells: E. coli BL21-derived host (T7 phage) or HEK-293
Description: as §1, §2, §3, §4

EPHA2 = target: T4, EPHA2 (Homo sapiens, UniProt P29317); assay: Kinase binding assay (Kd)
T4 construct: made in house; host or cells: E. coli BL21-derived host (T7 phage) for most kinases, HEK-293 for the rest
Description: as §1, §2, §3, §4

FAK = target: T5, FAK (Homo sapiens, UniProt Q05397); assay: Kinase binding assay (Kd)
T5 construct: made in house; host or cells: E. coli BL21-derived host (T7 phage) for most kinases, HEK-293 for the rest
T5 sequence (Q05397 whole entry): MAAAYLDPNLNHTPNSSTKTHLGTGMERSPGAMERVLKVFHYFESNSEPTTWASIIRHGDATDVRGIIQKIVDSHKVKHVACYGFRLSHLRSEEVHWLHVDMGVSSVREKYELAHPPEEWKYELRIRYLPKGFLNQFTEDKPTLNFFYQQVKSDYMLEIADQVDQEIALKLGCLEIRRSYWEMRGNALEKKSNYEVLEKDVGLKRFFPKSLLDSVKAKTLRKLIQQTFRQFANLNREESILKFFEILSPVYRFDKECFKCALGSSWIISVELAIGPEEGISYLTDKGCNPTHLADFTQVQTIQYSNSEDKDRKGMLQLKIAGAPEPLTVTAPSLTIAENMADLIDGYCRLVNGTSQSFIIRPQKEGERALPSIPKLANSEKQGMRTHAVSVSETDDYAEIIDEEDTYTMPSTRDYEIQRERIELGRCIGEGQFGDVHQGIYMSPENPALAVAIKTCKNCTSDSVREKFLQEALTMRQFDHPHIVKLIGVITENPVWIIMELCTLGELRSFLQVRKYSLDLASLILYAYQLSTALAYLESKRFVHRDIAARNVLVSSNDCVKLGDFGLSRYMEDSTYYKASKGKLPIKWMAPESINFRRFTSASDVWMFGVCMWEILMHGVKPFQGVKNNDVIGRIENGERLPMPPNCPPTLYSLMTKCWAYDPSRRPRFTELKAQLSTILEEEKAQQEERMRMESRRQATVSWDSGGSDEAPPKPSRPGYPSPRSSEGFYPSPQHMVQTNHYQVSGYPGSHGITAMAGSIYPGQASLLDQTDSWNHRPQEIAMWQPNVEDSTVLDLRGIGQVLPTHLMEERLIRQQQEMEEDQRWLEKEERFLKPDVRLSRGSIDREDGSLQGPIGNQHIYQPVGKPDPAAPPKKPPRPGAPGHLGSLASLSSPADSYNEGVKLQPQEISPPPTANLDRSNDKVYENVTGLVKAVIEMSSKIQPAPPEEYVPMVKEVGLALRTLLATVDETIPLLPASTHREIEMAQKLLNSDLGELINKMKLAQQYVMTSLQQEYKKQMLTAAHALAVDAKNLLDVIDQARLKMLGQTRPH
Description: as §1, §2, §3, §4

FGFR2 = target: T6, FGFR2 (Homo sapiens, UniProt P21802); assay: Kinase binding assay (Kd)
T6 construct: made in house; host or cells: E. coli BL21-derived host (T7 phage) or HEK-293
Description: as §1, §2, §3, §4

FGFR4 = target: T7, FGFR4 (Homo sapiens, UniProt P22455); assay: Kinase binding assay (Kd)
T7 construct: made in house; host or cells: E. coli BL21-derived host (T7 phage) or HEK-293
Description: as §1, §2, §3, §4

IKK-alpha = target: T8, IKK-alpha (Homo sapiens, UniProt O15111); assay: Kinase binding assay (Kd)
T8 construct: made in house; host or cells: E. coli BL21-derived host (T7 phage) for most kinases, HEK-293 for the rest
Description: as §1, §2, §3, §4

IKK-beta = target: T9, IKK-beta (Homo sapiens, UniProt O14920); assay: Kinase binding assay (Kd)
T9 construct: made in house; host or cells: E. coli BL21-derived host (T7 phage) for most kinases, HEK-293 for the rest
T9 sequence (O14920 whole entry): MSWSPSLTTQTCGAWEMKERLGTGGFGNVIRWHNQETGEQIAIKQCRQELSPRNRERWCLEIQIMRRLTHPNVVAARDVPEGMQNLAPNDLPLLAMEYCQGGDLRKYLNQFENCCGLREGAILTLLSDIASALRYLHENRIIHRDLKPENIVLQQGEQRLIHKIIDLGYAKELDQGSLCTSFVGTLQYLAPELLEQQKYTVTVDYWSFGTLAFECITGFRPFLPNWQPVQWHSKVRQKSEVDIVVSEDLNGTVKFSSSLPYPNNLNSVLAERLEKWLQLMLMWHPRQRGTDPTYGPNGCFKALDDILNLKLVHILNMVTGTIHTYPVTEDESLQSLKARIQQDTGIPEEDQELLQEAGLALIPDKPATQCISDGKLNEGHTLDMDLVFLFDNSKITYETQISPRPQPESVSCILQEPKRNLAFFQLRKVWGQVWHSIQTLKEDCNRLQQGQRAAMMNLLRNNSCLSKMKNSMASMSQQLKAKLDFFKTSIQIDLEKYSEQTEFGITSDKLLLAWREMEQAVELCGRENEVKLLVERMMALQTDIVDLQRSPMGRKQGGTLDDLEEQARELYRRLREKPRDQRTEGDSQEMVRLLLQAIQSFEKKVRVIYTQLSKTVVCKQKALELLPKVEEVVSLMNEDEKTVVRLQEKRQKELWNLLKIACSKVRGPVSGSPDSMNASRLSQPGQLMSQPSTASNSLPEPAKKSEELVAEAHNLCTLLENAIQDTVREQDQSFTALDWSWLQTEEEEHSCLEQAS
Description: as §1, §2, §3, §4

LKB1 = target: T10, LKB1 (Homo sapiens, UniProt Q15831); assay: Kinase binding assay (Kd)
T10 construct: made in house; host or cells: E. coli BL21-derived host (T7 phage) for most kinases, HEK-293 for the rest
Description: as §1, §2, §3, §4

MEK1 = target: T11, MEK1 (Homo sapiens, UniProt Q02750); assay: Kinase binding assay (Kd)
T11 construct: made in house; host or cells: E. coli BL21-derived host (T7 phage) for most kinases, HEK-293 for the rest
T11 sequence (Q02750 whole entry): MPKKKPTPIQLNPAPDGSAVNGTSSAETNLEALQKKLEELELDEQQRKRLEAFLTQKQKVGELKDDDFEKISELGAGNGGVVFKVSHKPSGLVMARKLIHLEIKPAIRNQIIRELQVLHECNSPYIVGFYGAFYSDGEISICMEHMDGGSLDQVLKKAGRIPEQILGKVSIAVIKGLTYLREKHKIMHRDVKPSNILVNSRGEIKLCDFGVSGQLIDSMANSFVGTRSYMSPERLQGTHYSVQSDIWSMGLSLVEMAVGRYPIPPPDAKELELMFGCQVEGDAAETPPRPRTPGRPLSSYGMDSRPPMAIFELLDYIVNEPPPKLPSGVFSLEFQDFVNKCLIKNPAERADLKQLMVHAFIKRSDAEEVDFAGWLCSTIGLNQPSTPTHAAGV
Description: as §1, §2, §3, §4

MKNK2 = target: T12, MKNK2 (Homo sapiens, UniProt Q9HBH9); assay: Kinase binding assay (Kd)
T12 construct: made in house; host or cells: E. coli BL21-derived host (T7 phage) for most kinases, HEK-293 for the rest
T12 sequence (Q9HBH9 whole entry): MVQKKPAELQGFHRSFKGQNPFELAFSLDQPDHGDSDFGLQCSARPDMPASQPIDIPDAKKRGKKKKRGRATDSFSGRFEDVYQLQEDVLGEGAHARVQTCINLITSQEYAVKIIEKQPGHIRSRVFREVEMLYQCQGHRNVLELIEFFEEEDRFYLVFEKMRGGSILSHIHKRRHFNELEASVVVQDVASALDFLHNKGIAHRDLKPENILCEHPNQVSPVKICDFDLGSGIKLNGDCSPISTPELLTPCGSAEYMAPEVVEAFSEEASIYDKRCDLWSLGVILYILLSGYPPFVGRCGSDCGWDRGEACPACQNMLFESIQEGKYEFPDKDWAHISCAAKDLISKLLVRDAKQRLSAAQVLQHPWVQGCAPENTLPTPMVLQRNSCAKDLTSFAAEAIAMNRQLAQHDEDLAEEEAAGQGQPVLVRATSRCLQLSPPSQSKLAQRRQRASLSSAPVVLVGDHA
Description: as §1, §2, §3, §4

RAF1 = target: T13, RAF1 (Homo sapiens, UniProt P04049); assay: Kinase binding assay (Kd)
T13 construct: made in house; host or cells: E. coli BL21-derived host (T7 phage) or HEK-293
T13 sequence (P04049 whole entry): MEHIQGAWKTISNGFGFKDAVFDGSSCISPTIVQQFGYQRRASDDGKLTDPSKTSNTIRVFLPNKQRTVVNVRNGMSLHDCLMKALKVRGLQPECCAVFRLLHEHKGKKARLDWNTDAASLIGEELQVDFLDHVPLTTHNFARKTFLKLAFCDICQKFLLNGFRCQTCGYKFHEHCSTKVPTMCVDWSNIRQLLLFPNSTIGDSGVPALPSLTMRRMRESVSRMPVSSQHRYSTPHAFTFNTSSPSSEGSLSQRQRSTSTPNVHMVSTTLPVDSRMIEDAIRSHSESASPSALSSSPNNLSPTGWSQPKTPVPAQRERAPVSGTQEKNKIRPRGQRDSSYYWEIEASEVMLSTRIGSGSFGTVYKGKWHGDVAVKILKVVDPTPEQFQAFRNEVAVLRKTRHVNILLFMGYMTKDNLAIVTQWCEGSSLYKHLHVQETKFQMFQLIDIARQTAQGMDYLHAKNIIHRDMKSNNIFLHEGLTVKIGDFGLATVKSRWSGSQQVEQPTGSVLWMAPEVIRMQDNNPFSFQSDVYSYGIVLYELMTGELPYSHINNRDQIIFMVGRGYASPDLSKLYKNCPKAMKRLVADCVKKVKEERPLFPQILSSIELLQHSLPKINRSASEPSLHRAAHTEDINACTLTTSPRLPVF
Description: as §1, §2, §3, §4

SRPK3 = target: T14, SRPK3 (Homo sapiens, UniProt Q9UPE1); assay: Kinase binding assay (Kd)
T14 construct: made in house; host or cells: E. coli BL21-derived host (T7 phage) or HEK-293
T14 sequence (Q9UPE1 whole entry): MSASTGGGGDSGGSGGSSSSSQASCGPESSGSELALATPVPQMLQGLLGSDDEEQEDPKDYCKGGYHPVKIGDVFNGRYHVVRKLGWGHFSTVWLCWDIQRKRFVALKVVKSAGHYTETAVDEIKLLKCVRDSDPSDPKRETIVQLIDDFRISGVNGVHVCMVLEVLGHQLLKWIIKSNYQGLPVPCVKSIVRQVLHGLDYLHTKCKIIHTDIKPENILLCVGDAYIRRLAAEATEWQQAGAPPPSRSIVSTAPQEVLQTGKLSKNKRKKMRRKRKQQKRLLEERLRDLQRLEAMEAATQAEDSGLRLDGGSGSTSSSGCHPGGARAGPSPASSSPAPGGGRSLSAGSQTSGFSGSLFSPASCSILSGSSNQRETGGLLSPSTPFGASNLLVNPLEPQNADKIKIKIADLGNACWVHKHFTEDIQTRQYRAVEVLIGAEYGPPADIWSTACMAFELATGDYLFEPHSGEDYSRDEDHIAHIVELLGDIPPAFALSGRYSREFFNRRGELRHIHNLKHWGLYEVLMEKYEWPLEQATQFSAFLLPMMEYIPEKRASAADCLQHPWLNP
Description: as §1, §2, §3, §4

ZAP70 = target: T15, ZAP70 (Homo sapiens, UniProt P43403); assay: Kinase binding assay (Kd)
T15 construct: made in house; host or cells: E. coli BL21-derived host (T7 phage) or HEK-293
T15 sequence (P43403 whole entry): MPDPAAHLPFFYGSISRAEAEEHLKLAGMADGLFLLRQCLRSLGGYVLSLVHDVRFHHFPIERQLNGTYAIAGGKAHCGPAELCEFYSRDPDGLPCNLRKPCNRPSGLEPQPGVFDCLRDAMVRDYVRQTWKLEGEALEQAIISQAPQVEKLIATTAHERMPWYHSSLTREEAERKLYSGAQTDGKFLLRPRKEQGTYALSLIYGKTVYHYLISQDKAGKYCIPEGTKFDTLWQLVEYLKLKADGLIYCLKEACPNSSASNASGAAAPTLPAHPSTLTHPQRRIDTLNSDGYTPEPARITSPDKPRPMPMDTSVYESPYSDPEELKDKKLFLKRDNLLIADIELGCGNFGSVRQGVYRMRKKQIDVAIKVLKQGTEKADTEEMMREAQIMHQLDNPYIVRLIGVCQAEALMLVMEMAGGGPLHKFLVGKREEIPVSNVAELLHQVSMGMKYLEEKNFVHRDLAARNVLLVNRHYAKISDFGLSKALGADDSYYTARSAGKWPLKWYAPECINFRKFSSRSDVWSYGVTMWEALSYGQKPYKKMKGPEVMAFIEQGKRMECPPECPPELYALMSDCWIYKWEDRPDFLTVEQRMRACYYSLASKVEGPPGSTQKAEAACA
Description: as §1, §2, §3, §4

p38-alpha = target: T16, p38-alpha (Homo sapiens, UniProt Q16539); assay: Kinase binding assay (Kd)
T16 construct: made in house; host or cells: E. coli BL21-derived host (T7 phage) for most kinases, HEK-293 for the rest
T16 sequence (Q16539 whole entry): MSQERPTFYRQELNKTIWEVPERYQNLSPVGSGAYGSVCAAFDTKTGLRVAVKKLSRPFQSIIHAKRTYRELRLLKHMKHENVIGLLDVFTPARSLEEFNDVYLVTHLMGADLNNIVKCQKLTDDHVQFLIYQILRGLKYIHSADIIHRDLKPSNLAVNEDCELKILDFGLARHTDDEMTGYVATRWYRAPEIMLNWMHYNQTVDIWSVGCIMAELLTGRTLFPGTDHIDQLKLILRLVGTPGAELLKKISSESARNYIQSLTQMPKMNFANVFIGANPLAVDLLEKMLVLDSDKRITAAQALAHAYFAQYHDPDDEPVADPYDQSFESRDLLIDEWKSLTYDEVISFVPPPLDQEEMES
Description: as §1, §2, §3, §4

RT-112 tumor xenografts = conditions: for Tumor growth inhibition (%): i.p., nude mice
Description: Eight-week-old female athymic nude mice were group-housed in the TMU Laboratory Animal Center (Taipei, Taiwan) under conditions of constant photoperiod (12 h light/12 h dark at 21-0023° C. and 60-85% humidity) with ad libitum access to sterilized food and water. […] Tumors were measured weekly using calipers. Tumor volume (mm3) was calculated from w2×½ (w=width, 1=length in mm of the tumor).

Kd (AURKB): > 10 µM
Kd (AXL): > 10 µM
Kd (CDK3): > 10 µM
Kd (EPHA2): > 10 µM
Kd (FAK): > 10 µM
Kd (FGFR2): 0.67 µM
Kd (FGFR4): 7.5 µM
Kd (IKK-alpha): > 10 µM
Kd (IKK-beta): > 10 µM
Kd (LKB1): > 10 µM
Kd (MEK1): > 10 µM
Kd (MKNK2): > 10 µM
Kd (RAF1): > 10 µM
Kd (SRPK3): > 10 µM
Kd (ZAP70): > 10 µM
Kd (p38-alpha): > 10 µM
Structure (SMILES): CCN1CCN(c2ccc(Nc3ncnc(N(C)C(=O)Nc4c(Cl)c(OC)c(Cl)c(OC)c4Cl)n3)cc2)CC1 [MPT0L145, 1-(4-((4-(4-ethylpiperazin-1-yl)phenyl)amino)-1,3,5-triazin-2-yl)-1-methyl-3-(2,4,6-trichloro-3,5-dimethoxyphenyl)urea]
accumulation of the sub-G1 phase (apoptotic cell death) (RT-112 cells [1]): did not promote accumulation of the sub-G1 phase
cyclin E levels (RT-112 cells [2]): marked decrease
p16 level (RT-112 cells [2]): slight increase
sensitivity of FGFR3-TACC3 fusion cells (RT-112, RT4) versus normal FGFR3 status (T24) [3]: more sensitive
Tumor growth inhibition (%) (RT-112 tumor xenografts; 5 mg/kg/d): 61.4%
Tumor growth inhibition (%) (RT-112 tumor xenografts; 10 mg/kg/d): 74.6%
tumor growth (RT-112 tumor xenografts; 5 and 10 mg/kg/d i.p., dose-dependent): significantly suppressed tumor growth
